The source made the active and inactive calls. No cut-off for these calls is given here.
Key:
B16-F10 [1] = assay: Induction of apoptosis in mouse B16-F10 cells assessed as early apoptotic cells at 10 nM incubated for 16 hrs followed by irradiated with 54 J/cm^2 light dose by Annexin V-FITC/PI based flow cytometric analysis (reference value: 6.48 %); assay type: functional
B16-F10 [2] = assay: Antitumor immunity against mouse B16-F10 cells assessed as surface translocation of CRT at 50 nM incubated for 16 hrs followed by irradiated with 54 J/cm^2 light dose and further incubated for 6 hrs by Alexa Fluor 488/Hoechst 33342 staining based confocal laser scanning microscopy; assay type: functional, cell-based
A-375 [3] = assay: Dark toxicity against human A-375 cells assessed as reduction in cell viability incubated for 16 hrs by CCK-8 assay; assay type: functional, cell-based; conditions: A-375, 16 h
B16-F10 [4] = assay: Antitumor activity against mouse B16-F10 cells implanted in C57BL/6 mouse assessed as tumor destruction at 2 mg/kg, iv irradiated with 60 J/cm^2 laser light measured after 14 days by hematoxylin and eosin based microscopic analysis; assay type: functional, organism-based; conditions: time 14.0 day
B16-F10 [5] = assay: Induction of ROS generation in mouse B16-F10 cells assessed as cells with high intracellular ROS levels at 10 nM incubated for 16 hrs followed by irradiated with 54 J/cm^2 of light dose by H2DCFDA fluorescent probe based flow cytometry method (reference value: 1.96 %); assay type: functional
B16-F10 [6] = assay: Induction of apoptosis in mouse B16-F10 cells assessed as necrotic cells at 10 nM incubated for 16 hrs followed by irradiated with 54 J/cm^2 light dose by Annexin V-FITC/PI based flow cytometric analysis (reference value: 3.75 %); assay type: functional
[7] = Biodistribution in spleen of C57BL/6 mouse harboring mouse B16-F10 cells at 2 mg/kg, iv measured after 12 hrs by flourescence imaging assay; assay type: ADME, organism-based; conditions: in vivo
[8] = Toxicity in C57BL/6 mouse harboring mouse B16-F10 cells assessed as change in body weight at 2 mg/kg, iv irradiated with 60 J/cm^2 laser light measured upto 14 days; assay type: organism-based; conditions: in vivo, 336 h, time <=14 day
B16-F10 [9] = assay: Antitumor immunity against mouse B16-F10 cells assessed as surface translocation of CRT at 10 nM incubated for 16 hrs followed by irradiated with 54 J/cm^2 light dose and further incubated for 6 hrs by Alexa Fluor 488/Hoechst 33342 staining based confocal laser scanning microscopy; assay type: functional, cell-based
[10] = Phototoxicity against mouse B16-F10 cells assessed as reduction in cell viability incubated for 16 hrs followed by irradiated with 54 J/cm^2 of light dose and further incubated for 24 hrs by CCK-8 assay; assay type: toxicity, cell-based; conditions: B16-F10, light or radiation study
[11] = Biodistribution in lungs of C57BL/6 mouse harboring mouse B16-F10 cells at 2 mg/kg, iv measured after 12 hrs by flourescence imaging assay; assay type: ADME, organism-based, Lung; conditions: in vivo
B16-F10 [12] = assay: Induction of apoptosis in mouse B16-F10 cells assessed as necrotic cells at 250 nM incubated for 16 hrs followed by irradiated with 54 J/cm^2 light dose by Annexin V-FITC/PI based flow cytometric analysis (reference value: 3.75 %); assay type: functional
A-375 [13] = assay: Induction of apoptosis in human A-375 cells assessed as total apoptotic cells at 10 nM incubated for 16 hrs followed by irradiated with 54 J/cm^2 light dose by Annexin V-FITC/PI based flow cytometric analysis (reference value: 4.79 %); assay type: functional
B16-F10 [14] = assay: Photodynamic therapy in mouse B16-F10 cells implanted in C57BL/6 mouse model assessed as increase in infiltration of CD4+ T cells by APC/FITC/PE staining based flow cytometric analysis (reference value: 4.85 %); assay type: functional
B16-F10 [15] = assay: Induction of ROS generation in mouse B16-F10 cells assessed as cells with high intracellular ROS levels at 20 nM incubated for 16 hrs followed by irradiated with 54 J/cm^2 of light dose by H2DCFDA fluorescent probe based flow cytometry method (reference value: 1.96 %); assay type: functional
B16-F10 [16] = assay: Induction of apoptosis in mouse B16-F10 cells assessed as early apoptotic cells at 250 nM incubated for 16 hrs followed by irradiated with 54 J/cm^2 light dose by Annexin V-FITC/PI based flow cytometric analysis (reference value: 6.48 %); assay type: functional
B16-F10 [17] = assay: Induction of ROS generation in mouse B16-F10 cells assessed as cells with high intracellular ROS levels at 100 nM incubated for 16 hrs followed by irradiated with 54 J/cm^2 of light dose by H2DCFDA fluorescent probe based flow cytometry method (reference value: 1.96 %); assay type: functional
[18] = Drug localisation in lysosome of mouse B16-F10 cells at 5 uM incubated for 16 hrs by Lyso Tracker Green based confocal laser scanning microscopy analysis; assay type: ADME, subcellular; conditions: b16-f10, 16 h
[19] = Biodistribution in liver of C57BL/6 mouse harboring mouse B16-F10 cells at 2 mg/kg, iv measured after 12 hrs by flourescence imaging assay; assay type: ADME, organism-based; conditions: in vivo
B16-F10 [20] = assay: Antitumor immunity against mouse B16-F10 cells assessed as release of HMGB1 at 10 nM incubated for 16 hrs followed by irradiated with 54 J/cm^2 light dose and further incubated for 6 hrs by Alexa Fluor 488/Hoechst 33342 staining based confocal laser scanning microscopy; assay type: functional, cell-based
B16-F10 [21] = assay: Induction of apoptosis in mouse B16-F10 cells assessed as late apoptotic cells at 50 nM incubated for 16 hrs followed by irradiated with 54 J/cm^2 light dose by Annexin V-FITC/PI based flow cytometric analysis (reference value: 2.32 %); assay type: functional
B16-F10 [22] = assay: Antitumor activity against mouse B16-F10 cells implanted in C57BL/6 mouse assessed as inhibition of tumor growth at 2 mg/kg, iv irradiated with 60 J/cm^2 laser light by IVIS imaging analysis measured upto 48 hrs; assay type: functional, organism-based; conditions: time hrs <=48
[23] = Drug localisation in mitochondria of mouse B16-F10 cells at 5 uM incubated for 16 hrs by Mito Tracker Green FM based confocal laser scanning microscopy analysis; assay type: ADME; conditions: b16-f10, 16 h
B16-F10 [24] = assay: Induction of apoptosis in mouse B16-F10 cells assessed as late apoptotic cells at 250 nM incubated for 16 hrs followed by irradiated with 54 J/cm^2 light dose by Annexin V-FITC/PI based flow cytometric analysis (reference value: 2.32 %); assay type: functional
B16-F10 [25] = assay: Antitumor immunity against mouse B16-F10 cells assessed as release of HMGB1 at 50 nM incubated for 16 hrs followed by irradiated with 54 J/cm^2 light dose and further incubated for 6 hrs by Alexa Fluor 488/Hoechst 33342 staining based confocal laser scanning microscopy; assay type: functional, cell-based
[26] = Drug elimination in C57BL/6 mouse harboring B16-F10 cells at 2 mg/kg, iv measured after 48 hrs by fluorescence imaging assay; assay type: ADME, organism-based; conditions: in vivo
[27] = Biodistribution in whole body of C57BL/6 mouse harboring B16-F10 cells at 2 mg/kg, iv measured after 12 hrs by flourescence imaging assay; assay type: ADME, organism-based; conditions: in vivo
B16-F10 [28] = assay: Photodynamic therapy in mouse B16-F10 cells implanted in C57BL/6 mouse model assessed as increase infiltration of CD8+ T cells measured after 3 days by immunofluorescence staining based analysis; assay type: functional, cell-based; conditions: time 3.0 day
A-375 [29] = assay: Induction of ROS generation in human A-375 cells assessed as cells with high intracellular ROS levels at 20 nM incubated for 16 hrs followed by irradiated with 54 J/cm2 light dose by H2DCFDA fluorescent probe based flow cytometry method (reference value: 2.09 %); assay type: functional

Drug uptake [7]: Active
Drug uptake [11]: Active
Drug uptake [18]: Active
Drug uptake [19]: Active
Drug uptake [23]: Active
Drug excretion [26]: Active
Drug uptake [27]: Active
Compound: COc1ccc(C2=[N+]3C(=Nc4c(-c5ccccc5)c5c(n4[B-]3(F)F)-c3ccc(OCC(=O)N[C@@H](CC(=O)O)C(=O)O)cc3CC5)C(c3ccccc3)=C2I)cc1
Activity (B16-F10 [1]): 2.93%
Activity (B16-F10 [2]): Active
IC50 (A-375 [3]): > 250000 nM
Activity (B16-F10 [4]): Active
Activity (B16-F10 [5]): 2.67%
Activity (B16-F10 [6]): 0.88%
Activity [8]: Non-Toxic
Activity (B16-F10 [9]): inactive
IC50 [10]: 65 nM
Activity (B16-F10 [12]): 0.29%
Activity (A-375 [13]): 6.68%
Activity (B16-F10 [14]): 8.11%
Activity (B16-F10 [15]): 6.77%
Activity (B16-F10 [16]): 75.41%
Activity (B16-F10 [17]): 70.29%
Activity (B16-F10 [20]): inactive
Activity (B16-F10 [21]): 13.7%
Activity (B16-F10 [22]): Active
Activity (B16-F10 [24]): 20.54%
Activity (B16-F10 [25]): Active
Activity (B16-F10 [28]): Active
Activity (A-375 [29]): 4.57%
